Where two headings read alike, the source gives them in different places.
Legend:
[1] = target: human dopamine D2L receptor (Homo sapiens, UniProt P14416); test: Dopamine D2L radioligand binding ([3H]Spiperone); conditions: compound at 1 μM; for Inhibition of ligand binding, Dopamine D2L: 1 µM
From the text: Non-specific binding was estimated in the presence of […] Haloperidol. Receptor proteins were filtered and washed, the filters were then counted to determine [^3H]Spiperone specifically bound. […] Biochemical assay results are presented as the percent inhibition of specific binding in Table 9.

[2] = target: T1, human recombinant histamine H2 receptor (Homo sapiens, UniProt P25021); test: Histamine H2 radioligand binding ([125I]Aminopotentidine); conditions: read-out: Histamine Binding (1 μM) H2, percent inhibition of specific binding, 1 μM
T1 construct: expressed in transfected cells; host or cells: Chinese hamster ovary (CHO) K1 cells
T1 sequence (P25021 whole entry): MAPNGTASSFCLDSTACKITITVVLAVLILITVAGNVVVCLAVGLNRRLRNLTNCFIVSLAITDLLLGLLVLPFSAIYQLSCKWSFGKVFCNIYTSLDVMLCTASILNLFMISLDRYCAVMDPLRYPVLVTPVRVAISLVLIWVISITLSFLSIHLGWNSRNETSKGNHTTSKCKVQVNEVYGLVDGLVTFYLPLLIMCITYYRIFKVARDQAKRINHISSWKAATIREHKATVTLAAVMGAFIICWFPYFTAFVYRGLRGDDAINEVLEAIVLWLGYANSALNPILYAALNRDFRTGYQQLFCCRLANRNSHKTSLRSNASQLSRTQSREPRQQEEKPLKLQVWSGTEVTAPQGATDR
Procedure, shortened: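 CHO-K1 cells expressing human recombinant H2 receptor, 50 mM phosphate buffer pH 7.4; compounds incubated with 0.1 nM [125I]aminopotentidine for 120 min at 25 °C. Nonspecific binding defined with 3 μM tiotidine; specifically bound radioligand counted after filtration and washing.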

[3] = target: T2, human recombinant serotonin 5-HT1B receptor (Homo sapiens, UniProt P28222); test: 5-HT1B radioligand binding competition assay ([3H]5-CT, CHO-K1 membranes); conditions: for 5-HT1B (5 μM) % Binding relative to bound radioligand: in duplicate, average
T2 construct: expressed in transfected cells; host or cells: CHO-K1 cell line, membrane extracts
T2 sequence (P28222 whole entry): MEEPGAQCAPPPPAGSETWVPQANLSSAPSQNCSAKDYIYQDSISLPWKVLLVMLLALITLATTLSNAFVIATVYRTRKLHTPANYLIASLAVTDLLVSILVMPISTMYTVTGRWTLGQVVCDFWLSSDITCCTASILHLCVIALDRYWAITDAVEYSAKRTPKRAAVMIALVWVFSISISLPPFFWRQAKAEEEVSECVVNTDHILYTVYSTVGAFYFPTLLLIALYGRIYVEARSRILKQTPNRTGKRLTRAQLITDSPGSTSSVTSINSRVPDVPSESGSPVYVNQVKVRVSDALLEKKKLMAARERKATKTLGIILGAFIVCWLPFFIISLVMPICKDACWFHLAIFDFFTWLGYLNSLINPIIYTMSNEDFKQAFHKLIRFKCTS
Description: To determine the binding activity at the human recombinant serotonin 5-HT1B receptor of compounds of the invention, CHO-K1 cell line expressing the human 5-HT1B recombinant receptor was amplified to prepare membranes used for the radioligand binding assay throughout the study. Radioligand binding competition on 5-HT1B was performed by adding successively in the wells of a 96 well plate (Master Block, Greiner, 786201). […] The plate was incubated 60 min at 25° C. in a water bath and then filtered over GF/B filters (Perkin Elmer, 6005177, presoaked in 0.5% PE1 for 2 h at room temperature) with a Filtration unit (Perkin Elmer). The filters were washed 3× with 0.5 mL of ice-cold washing buffer (50 mM Tris pH 7.4). 50 μL Microscint 20 (Packard) was added and the plate was incubated 15 min on an orbital shaker and then counted with a TopCount™ for 1 min/well.
The reference value thus obtained for the test was compared to a historical value obtained from the same receptor and used to validate the experimental session. […] For replicate determinations, the maximum variability tolerated in the test was of +/−20% around the average of the replicates.
Compounds were tested for binding activity in the radioligand binding competition assay on human 5-HT1B receptor, at one concentration […], in duplicate. Dose-response data from test compounds were analyzed with XLfit (IDBS) software using nonlinear regression applied to a sigmoidal dose-response model.
Dose-response data was analyzed with XLfit (IDBS) software using non-linear regression applied to a sigmoidal dose-response model.

[4] = target: T3, human recombinant serotonin (5-Hydroxytryptamine) 5-HT6 receptor (Homo sapiens, UniProt P50406); test: Serotonin 5-HT6 radioligand binding ([3H]LSD); conditions: read-out: Inhibition of ligand binding, Serotonin 5-HT6 (percent inhibition of specific binding); for inhibition at 1 µM: compound at 1 μM; for inhibition at 0.1 µM: compound at 0.1 μM
T3 construct: expressed in transfected cells; host or cells: human HeLa cells
T3 sequence (P50406 whole entry): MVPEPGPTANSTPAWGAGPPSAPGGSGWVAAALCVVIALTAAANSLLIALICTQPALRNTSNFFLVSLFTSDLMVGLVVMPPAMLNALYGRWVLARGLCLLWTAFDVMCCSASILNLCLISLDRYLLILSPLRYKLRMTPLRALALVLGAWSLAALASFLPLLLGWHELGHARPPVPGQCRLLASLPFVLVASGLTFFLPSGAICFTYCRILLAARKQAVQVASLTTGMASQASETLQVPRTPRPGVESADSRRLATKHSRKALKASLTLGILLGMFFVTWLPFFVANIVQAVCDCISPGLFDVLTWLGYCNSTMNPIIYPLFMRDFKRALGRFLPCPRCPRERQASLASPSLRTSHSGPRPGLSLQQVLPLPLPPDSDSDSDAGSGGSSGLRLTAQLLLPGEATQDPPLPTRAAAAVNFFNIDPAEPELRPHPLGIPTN
Description: Compounds of the invention were incubated with 1.5 nM [3H]Lysergic acid diethylamide (LSD) for 120 min. at 37° C. […] Receptor proteins were filtered and washed, the filters were then counted to determine [3H]LSD specifically bound. Compounds were screened at 1 μM or lower, using 1% DMSO as vehicle. Biochemical assay results are presented as the percent inhibition of specific binding in Table 10.

histamine receptor H1 = histamine receptor H1 (Homo sapiens, UniProt P35367); test: Histamine H1 radioligand binding ([3H]Pyrilamine); conditions: for inhibition at 1 µM: read-out: Histamine Binding (1 μM) H1, percent inhibition of specific binding, 1 μM
histamine receptor H1, sequence (P35367 whole entry): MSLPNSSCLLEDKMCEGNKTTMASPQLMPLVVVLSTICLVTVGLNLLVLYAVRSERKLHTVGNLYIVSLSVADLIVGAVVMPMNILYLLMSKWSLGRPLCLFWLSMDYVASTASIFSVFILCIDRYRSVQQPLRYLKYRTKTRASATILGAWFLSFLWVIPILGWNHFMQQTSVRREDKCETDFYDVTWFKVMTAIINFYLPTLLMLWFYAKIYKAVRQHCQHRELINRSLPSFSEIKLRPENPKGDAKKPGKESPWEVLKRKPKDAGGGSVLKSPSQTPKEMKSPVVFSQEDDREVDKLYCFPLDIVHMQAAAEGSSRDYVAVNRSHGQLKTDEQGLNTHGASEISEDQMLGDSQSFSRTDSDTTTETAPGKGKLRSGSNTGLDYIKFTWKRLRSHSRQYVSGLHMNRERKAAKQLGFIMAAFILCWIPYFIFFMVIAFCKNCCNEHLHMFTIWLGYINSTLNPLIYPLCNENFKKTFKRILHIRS
Procedure, shortened: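 Values are percent inhibition of specific [3H]pyrilamine (1.2 nM) binding with compounds at ≤1 μM (1% DMSO vehicle); 180 min incubation at 25 °C, pH 7.4 Tris buffer, on CHO-expressed human H1 receptor; 1 μM pyrilamine defined nonspecific binding, bound ligand counted after filtration.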

[5] = target: human recombinant serotonin (5-Hydroxytryptamine) 5-HT7 receptor (Homo sapiens, UniProt P34969); test: Serotonin 5-HT7 radioligand binding ([3H]LSD); conditions: for inhibition at 1 µM / inhibition at 0.1 µM: read-out: Inhibition of ligand binding, Serotonin 5-HT7 (percent inhibition of specific binding); for inhibition at 0.1 µM: compound at 0.1 μM
human recombinant serotonin (5-Hydroxytryptamine) 5-HT7 receptor, sequence (P34969 whole entry): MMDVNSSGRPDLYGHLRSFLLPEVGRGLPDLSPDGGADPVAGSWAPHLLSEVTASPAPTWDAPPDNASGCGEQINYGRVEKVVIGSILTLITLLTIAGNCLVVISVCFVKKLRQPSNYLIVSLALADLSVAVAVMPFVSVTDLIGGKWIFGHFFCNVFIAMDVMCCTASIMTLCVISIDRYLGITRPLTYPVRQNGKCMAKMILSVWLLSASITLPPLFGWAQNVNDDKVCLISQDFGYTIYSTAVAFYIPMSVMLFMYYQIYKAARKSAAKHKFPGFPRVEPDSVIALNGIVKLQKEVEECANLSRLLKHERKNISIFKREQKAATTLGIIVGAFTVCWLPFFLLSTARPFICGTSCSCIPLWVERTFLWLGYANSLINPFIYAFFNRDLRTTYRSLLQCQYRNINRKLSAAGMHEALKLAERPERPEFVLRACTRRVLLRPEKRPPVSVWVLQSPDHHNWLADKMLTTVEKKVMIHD
From the text: Receptor proteins were filtered and washed, the filters were then counted to determine [^3H]LSD specifically bound.

[6] = target: T4, human recombinant serotonin (5-Hydroxytryptamine) 5-HT2A receptor (Homo sapiens, UniProt P28223); test: Serotonin 5-HT2A radioligand binding ([3H]Ketanserin); conditions: for inhibition at 1 µM: read-out: Inhibition of ligand binding, Serotonin 5-HT2A (percent inhibition of specific binding), compound at 1 μM; for inhibition at 0.1 µM: read-out: Inhibition of ligand binding, Serotonin 5-HT2A (percent inhibition of specific binding), compound at 0.1 μM
T4 construct: expressed in transfected cells; host or cells: Chinese hamster ovary (CHO-K1) cells
T4 sequence (P28223 whole entry): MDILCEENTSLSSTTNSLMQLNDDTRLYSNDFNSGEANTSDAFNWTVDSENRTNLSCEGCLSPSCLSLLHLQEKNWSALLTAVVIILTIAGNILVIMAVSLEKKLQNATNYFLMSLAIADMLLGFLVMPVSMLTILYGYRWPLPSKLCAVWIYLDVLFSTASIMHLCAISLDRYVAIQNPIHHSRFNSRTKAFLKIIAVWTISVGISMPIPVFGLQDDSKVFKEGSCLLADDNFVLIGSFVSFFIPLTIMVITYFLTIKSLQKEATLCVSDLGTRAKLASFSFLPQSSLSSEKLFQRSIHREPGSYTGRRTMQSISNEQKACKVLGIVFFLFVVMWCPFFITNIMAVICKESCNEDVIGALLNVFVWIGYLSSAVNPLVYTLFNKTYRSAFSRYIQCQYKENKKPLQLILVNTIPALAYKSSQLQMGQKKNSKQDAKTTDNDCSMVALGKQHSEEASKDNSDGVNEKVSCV
Description: Compounds of the invention were incubated with 0.5 nM [^3H]Ketanserin for 60 min. at 25° C. Non-specific binding was estimated in the presence of 1 μM Mianserin. Receptor proteins were filtered and washed, the filters were then counted to determine [^3H]Ketanserin specifically bound.

[7] = target: T5, human recombinant serotonin (5-Hydroxytryptamine) 5-HT2C receptor (Homo sapiens, UniProt P28335); test: Serotonin 5-HT2C radioligand binding ([3H]Mesulergine); conditions: for inhibition at 1 µM / inhibition at 0.1 µM: read-out: Inhibition of ligand binding, Serotonin 5-HT2C (percent inhibition of specific binding); for inhibition at 0.1 µM: compound at 0.1 μM
T5 construct: expressed in transfected cells; host or cells: Chinese hamster ovary (CHO-K1) cells
T5 sequence (P28335 33-458): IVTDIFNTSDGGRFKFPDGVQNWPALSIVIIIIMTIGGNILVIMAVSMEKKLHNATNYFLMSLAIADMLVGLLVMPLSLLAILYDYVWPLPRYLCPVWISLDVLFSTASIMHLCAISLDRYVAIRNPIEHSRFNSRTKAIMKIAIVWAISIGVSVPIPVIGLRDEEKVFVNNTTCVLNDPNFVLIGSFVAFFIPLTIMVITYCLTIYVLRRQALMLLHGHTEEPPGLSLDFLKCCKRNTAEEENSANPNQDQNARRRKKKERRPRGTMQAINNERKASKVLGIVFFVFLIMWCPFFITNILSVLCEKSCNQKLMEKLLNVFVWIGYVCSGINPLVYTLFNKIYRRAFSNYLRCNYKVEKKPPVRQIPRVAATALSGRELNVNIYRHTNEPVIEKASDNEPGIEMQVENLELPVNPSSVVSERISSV
Procedure, shortened: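 Compounds tested at 1 μM or lower (1% DMSO vehicle) for displacement of 1 nM [3H]Mesulergine over 60 min at 25° C. Specific binding determined by filtration counting, with 1 μM Mianserin defining non-specific binding; values are percent inhibition.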

[8] = percent inhibition of specific binding, read-out: Inhibition of ligand binding, Dopamine D2L
[9] = percent inhibition of specific binding

human dopamine D2L receptor, sequence (P14416 whole entry): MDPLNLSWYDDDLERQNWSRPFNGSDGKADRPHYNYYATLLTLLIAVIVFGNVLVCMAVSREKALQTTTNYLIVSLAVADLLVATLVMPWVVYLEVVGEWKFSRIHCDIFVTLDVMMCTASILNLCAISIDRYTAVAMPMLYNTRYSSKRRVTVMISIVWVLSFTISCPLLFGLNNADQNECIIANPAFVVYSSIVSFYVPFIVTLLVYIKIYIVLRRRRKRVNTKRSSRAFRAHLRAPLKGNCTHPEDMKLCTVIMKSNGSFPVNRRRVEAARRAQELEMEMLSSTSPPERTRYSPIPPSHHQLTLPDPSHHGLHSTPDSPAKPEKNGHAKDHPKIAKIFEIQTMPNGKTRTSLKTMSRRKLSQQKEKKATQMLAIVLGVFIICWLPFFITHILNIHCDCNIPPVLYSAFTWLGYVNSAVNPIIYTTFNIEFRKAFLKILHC

SMILES	inhibition at 1 µM [1, 8]	inhibition at 1 µM [2]	5-HT1B (5 μM) % Binding relative to bound radioligand [3]	inhibition at 1 µM [4]	inhibition at 1 µM (histamine receptor H1)	inhibition at 1 µM ([5]; compound at 1 μM)	inhibition at 1 µM [6]	inhibition at 1 µM ([7]; compound at 1 μM)	Inhibition of ligand binding, Dopamine D2L [1, 9]	inhibition at 0.1 µM [4]	inhibition at 0.1 µM [5]	inhibition at 0.1 µM [6]	inhibition at 0.1 µM [7]	also measured
C/C(=C\n1c2c(c3cc(C)ccc31)CN(C)CC2)c1cccnc1 [Compound 91, (E)-2,3,4,5-tetrahydro-2,8-dimethyl-5-(2-(pyridin-3-yl)prop-1-enyl)-1H-pyrido[4,3-b]indole]	27%	52%	9%	76%	11%	95%	98%	100%						IC50 [3]: 365 nM; % Binding relative to bound radioligand (5-HT1B) ([3]; Conc. 0.08 nM): 120%; % Binding relative to bound radioligand (5-HT1B) ([3]; Conc. 5 nM): 129%; % Binding relative to bound radioligand (5-HT1B) ([3]; Conc. 20 nM): 113%; % Binding relative to bound radioligand (5-HT1B) ([3]; Conc. 78 nM): 103%; % Binding relative to bound radioligand (5-HT1B) ([3]; Conc. 313 nM): 66%; % Binding relative to bound radioligand (5-HT1B) ([3]; Conc. 1250 nM): 31%; % Binding relative to bound radioligand (5-HT1B) ([3]; Conc. 20000 nM): 1%; % Binding relative to bound radioligand (5-HT1B) ([3]; Conc. 50000 nM): −5%
CN1CCc2c(c3cccc(Cl)c3n2CC(C)(O)c2ccncc2)C1 (stereo not drawn) [Compound 182, 1-(6-chloro-2-methyl-3,4-dihydro-1H-pyrido[4,3-b]indol-5(2H)-yl)-2-(pyridin-4-yl)propan-2-ol]	8%	53%	3%	47%	26%	54%	91%	93%						
C/C(=C\n1c2c(c3ccccc31)CN(C)CC2)c1ccncc1 [Compound 217, (E)-2-methyl-5-(2-(pyridin-4-yl)prop-1-enyl)-2,3,4,5-tetrahydro-1H-pyrido[4,3-b]indole]	86%	50%	10%	102%		73%	98%	87%	88%	97%	58%	96%	62%	Inhibition of ligand binding, Serotonin 5-HT7 (percent inhibition of specific binding) ([5]; compound at 1 μM, 1 µM): 91%; Inhibition of ligand binding, Serotonin 5-HT2C (percent inhibition of specific binding) ([7]; compound at 1 μM, 1 µM): 92%
C/C(=C\n1c2c(c3cccc(F)c31)CN(C)CC2)c1ccncc1 [Compound 223, (E)-6-fluoro-2-methyl-5-(2-(pyridin-4-yl)prop-1-enyl)-2,3,4,5-tetrahydro-1H-pyrido[4,3-b]indole]	96%	44%	4%	103%	6%	91%	95%	93%	97%	104%	67%	97%	81%	Histamine Binding (1 μM) H1, percent inhibition of specific binding (histamine receptor H1): 11%
C/C(=C/n1c2c(c3cc(C)ccc31)CN(C)CC2)c1ccncc1 [Compound 224, (Z)-2,8-dimethyl-5-(2-(pyridin-4-yl)prop-1-enyl)-2,3,4,5-tetrahydro-1H-pyrido[4,3-b]indole]	65%	58%	10%	102%	24%	91%	99%	97%	80%	96%	88%	92%	95%	Histamine Binding (1 μM) H1, percent inhibition of specific binding (histamine receptor H1): 26%
C/C(=C\n1c2c(c3cc(C)ccc31)CN(C)C(C)C2)c1ccc(C)nc1 (stereo not drawn) [Compound 259, (E)-2,3,8-trimethyl-5-(2-(6-methylpyridin-3-yl)prop-1-enyl)-2,3,4,5-tetrahydro-1H-pyrido[4,3-b]indole]	-12%		25%		10%					21%	81%	96%	92%	
C/C(=C/n1c2c(c3cc(C)ccc31)CN(C)CC2)c1ccc(F)cc1F [Compound 274, (Z)-5-(2-(2,4-difluorophenyl)prop-1-enyl)-2,8-dimethyl-2,3,4,5-tetrahydro-1H-pyrido[4,3-b]indole]	56%		6%		72%					97%	94%	98%	99%	
C/C=C(\Cn1c2c(c3cc(C)ccc31)CN(C)CC2)c1ccncc1 [Compound No. 359, (Z)-2,8-dimethyl-5-(2-(pyridin-4-yl)but-2-enyl)-2,3,4,5-tetrahydro-1H-pyrido[4,3-b]indole]			68%		38%									inhibition at 1 µM ([1]; […] [3H]Spiperone, read-out: Inhibition of ligand binding, Dopamine D2L (percent inhibition of specific binding)): 27%
